From ChEMBL document CHEMBL1201862, “PubChem BioAssay data set” (2004)
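Where inhibition never reached the appropriate level, the endpoint shown equals the highest concentration tested. Otherwise, values were interpolated linearly from a five-concentration, 48-hour dose response in 96-well plates. GI50: concentration for 50% inhibition of growth.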 Active and inactive are the calls of the source. Rule as the data show it: active = GI50 up to about 1.1 µM and inactive = higher.

Columns and labels:
Assay in all cases: NCI anticancer screen, dose series, 48 h
[1] = test system: 786-0
[2] = test system: A498
[3] = test system: A549
[4] = test system: ACHN
[5] = test system: CAKI-1
[6] = test system: CCRF-CEM
[7] = test system: DLD-1
[8] = test system: DMS-114
[9] = test system: DMS-273
[10] = test system: EKVX
[11] = test system: HCC 2998
[12] = test system: HCT-116
[13] = test system: HCT-15
[14] = test system: HL-60
[15] = test system: HOP-62
[16] = test system: HT-29
[17] = test system: IGROV-1
[18] = test system: K562
[19] = test system: KM-20L2
[20] = test system: KM12
[21] = test system: LXFL 529
[22] = test system: M14
[23] = test system: M19-MEL
[24] = test system: MOLT-4
[25] = test system: Malme-3M
[26] = test system: NCI-H226
[27] = test system: NCI-H23
[28] = test system: NCI-H460
[29] = test system: OVCAR-3
[30] = test system: OVCAR-4
[31] = test system: OVCAR-5
[32] = test system: OVCAR-8
[33] = test system: RPMI-8226
[34] = test system: RXF 393
[35] = test system: RXF 631
[36] = test system: SF-295
[37] = test system: SF-539
[38] = test system: SK-MEL-28
[39] = test system: SK-MEL-2
[40] = test system: SK-MEL-5
[41] = test system: SK-OV-3
[42] = test system: SNB-75
[43] = test system: SNB-78
[44] = test system: SW-620
[45] = test system: TK-10
[46] = test system: U-251
[47] = test system: UACC-257
[48] = test system: UACC-62
[49] = test system: UO-31
[50] = test system: XF498

Measured: GI50

O=c1[nH]c(-c2ccccc2)nc2cc(Cl)ccc12
inactive: [1] > 100 µM | [2] > 100 µM | [3] > 100 µM | [4] > 100 µM | [5] > 100 µM | [6] > 100 µM | [7] > 100 µM | [8] > 100 µM | [9] > 100 µM | [10] > 100 µM | [11] > 100 µM | [12] > 100 µM | [14] > 100 µM | [15] > 100 µM | [16] > 100 µM | [17] > 100 µM | [18] > 100 µM | [19] > 100 µM | [20] > 100 µM | [21] > 100 µM | [22] > 100 µM | [23] > 100 µM | [24] > 100 µM | [25] > 100 µM | [26] 73.3 µM | [27] > 100 µM | [28] > 100 µM | [29] > 100 µM | [30] > 100 µM | [31] > 100 µM | [32] > 100 µM | [33] > 100 µM | [34] > 100 µM | [35] > 100 µM | [36] > 100 µM | [37] > 100 µM | [38] > 100 µM | [39] > 100 µM | [40] > 100 µM | [41] > 100 µM | [42] > 100 µM | [43] > 100 µM | [44] > 100 µM | [45] > 100 µM | [46] > 100 µM | [47] > 100 µM | [48] > 100 µM | [49] > 100 µM | [50] > 100 µM
> 100 µM: [13]
